Experimental data published in the supplement of paper PMC5908809.

What was measured:
NK-YS (IL-2 2.5 ng/mL) [1] = assay: drug sensitivity score (DSS) (DSS units); higher = more sensitive; extreme values may be limits of the assay; settings: 72 h
SNK-6 (IL-2 2.5 ng/mL) [2] = assay: as above; settings: 72 h
NK-92 (IL-2 2.5 ng/mL) [3] = assay: as above; settings: 72 h
NKL (IL-2 2.5 ng/mL) [4] = assay: as above; settings: 72 h
DERL-7 (IL-2 2.5 ng/mL) [5] = assay: as above; settings: 72 h
IMC-1 (IL-2 20 ng/mL) [6] = assay: as above; settings: 72 h
[7] = tested on: normal primary NK cells, pool 3 (3 donors) (IL-2 2.5 ng/mL); assay: as above; settings: 72 h
KAI3 (IL-2 2.5 ng/mL) [8] = assay: as above; settings: 72 h
[9] = tested on: normal primary NK cells, pool 1 (3 donors), resting (IL-2 0 ng/mL); assay: as above; settings: 72 h
[10] = tested on: normal primary NK cells, pool 2 (3 donors) (IL-2 2.5 ng/mL); assay: as above; settings: 72 h
[11] = tested on: normal primary NK cells, pool 1 (3 donors) (IL-2 2.5 ng/mL); assay: as above; settings: 72 h
KHYG-1 (IL-2 2.5 ng/mL) [12] = assay: as above; settings: 72 h
YT (IL-2 2.5 ng/mL) [13] = assay: as above; settings: 72 h
[14] = tested on: normal NK cells expanded with K562-aAPC; assay: as above; settings: 72 h; IL-2 2.5 ng/mL
Experimental: (§1)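 Drug sensitivity and resistance testing on K562-aAPC-expanded normal NK cells: 5 concentrations (10-fold steps over a 10,000-fold range), 72 h at 37 °C, viability by CellTiter-Glo normalised to DMSO and benzethonium chloride controls; DSS from the fitted curve.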

[15] = tested on: normal NK cells expanded with K562-aAPC; assay: percent inhibition of viability; higher = more inhibition; settings: 72 h, IL-2 2.5 ng/mL
Experimental: as §1

NK-YS (IL-2 2.5 ng/mL) [16] = assay: as above; settings: 72 h
SNK-6 (IL-2 2.5 ng/mL) [17] = assay: as above; settings: 72 h
NK-92 (IL-2 2.5 ng/mL) [18] = assay: as above; settings: 72 h
NKL (IL-2 2.5 ng/mL) [19] = assay: as above; settings: 72 h
DERL-7 (IL-2 2.5 ng/mL) [20] = assay: as above; settings: 72 h
IMC-1 (IL-2 20 ng/mL) [21] = assay: as above; settings: 72 h
[22] = tested on: normal primary NK cells, pool 3 (3 donors) (IL-2 2.5 ng/mL); assay: as above; settings: 72 h
KAI3 (IL-2 2.5 ng/mL) [23] = assay: as above; settings: 72 h
[24] = tested on: normal primary NK cells, pool 1 (3 donors), resting (IL-2 0 ng/mL); assay: as above; settings: 72 h
[25] = tested on: normal primary NK cells, pool 2 (3 donors) (IL-2 2.5 ng/mL); assay: as above; settings: 72 h
[26] = tested on: normal primary NK cells, pool 1 (3 donors) (IL-2 2.5 ng/mL); assay: as above; settings: 72 h
KHYG-1 (IL-2 2.5 ng/mL) [27] = assay: as above; settings: 72 h
YT (IL-2 2.5 ng/mL) [28] = assay: as above; settings: 72 h

C[C@@H]1CN(CC(=O)Nc2ccc3c(c2)Cc2cccc(-c4cc(=O)cc(N5CCOCC5)o4)c2S3)C[C@H](C)O1 (max concentration tested 25000 nM)
Settings | drug sensitivity score
DERL-7 (IL-2 2.5 ng/mL) [5] | 6.89
IMC-1 (IL-2 20 ng/mL) [6] | 5.86
KAI3 (IL-2 2.5 ng/mL) [8] | 7.81
KHYG-1 (IL-2 2.5 ng/mL) [12] | 8.65
NK-92 (IL-2 2.5 ng/mL) [3] | 8.57
NK-YS (IL-2 2.5 ng/mL) [1] | 6.02
NKL (IL-2 2.5 ng/mL) [4] | 7.43
SNK-6 (IL-2 2.5 ng/mL) [2] | 6.99
YT (IL-2 2.5 ng/mL) [13] | 6.69
[7] | 3.14
[9] | 8.7
[10] | 5.1
[11] | 6.71
[14] | 2.76

percent inhibition of viability [%]
Settings | 2.5 nM | 25 nM | 250 nM | 2500 nM | 25000 nM
DERL-7 (IL-2 2.5 ng/mL) [20] | -2 | -3.36 | -4.44 | 13 | 85.2
IMC-1 (IL-2 20 ng/mL) [21] | -9.5 | -5.69 | -6.07 | 2.99 | 98.3
KAI3 (IL-2 2.5 ng/mL) [23] | 5.88 | 0.49 | -7.91 | 18.6 | 87.2
KHYG-1 (IL-2 2.5 ng/mL) [27] | -6.23 | -8.72 | -3.2 | 18.6 | 107
NK-92 (IL-2 2.5 ng/mL) [18] | -7.1 | -15.1 | -2.57 | 18.6 | 101
NK-YS (IL-2 2.5 ng/mL) [16] | -6.64 | -9 | -7.16 | 8.32 | 84.3
NKL (IL-2 2.5 ng/mL) [19] | -13.9 | -22.8 | -12.4 | 24.9 | 71
SNK-6 (IL-2 2.5 ng/mL) [17] | -10.7 | -10.4 | -8.37 | 9 | 100
YT (IL-2 2.5 ng/mL) [28] | -6.13 | -5.84 | -0.59 | 8.43 | 96.4
[15] | -9.26 | -9.66 | -11.6 | -3.45 | 56.6
[22] | -1.38 | 0.2 | 6.37 | -0.76 | 59.3
[24] | 10.2 | 6.26 | 7.45 | 30.7 | 89
[25] | -2.96 | -5.92 | 1.66 | 7.62 | 69.8
[26] | -8.95 | -10.4 | -7.4 | 10 | 91.3
